Experimental data published in patent publication US10807960B2, “Compounds, compositions, and methods for controlling biofilms” (KATHOLIEKE UNIVERSITEIT LEUVEN, priority 2015, dated 2020).
pIC50: −log10 of the molar value. Where two headings read alike, the source gives them in different places. Marks after values point to notes of the source that are not given here.

How the values were obtained:
B. cepacia LMG1222T = assay: static peg (Calgary Biofilm Device) anti-biofilm assay, crystal violet and OD600; details: 25° C.
bone cells = details: as previously reported; cited from earlier work
[1] = tested on: C. albicans SC5314 + E. coli MG1655; assay: mixed C. albicans/E. coli biofilm assay, selective plating; assay type: cell-based, Candida albicans; E. coli; details: 37° C.; for CFUs % survival E. coli: E. coli in mixed biofilm with C. albicans
Protocol: Overnight cultures of C. albicans SC5314 (YPD) and E. coli MG1655 (TSB). were washed three times with PBS, after which they were diluted in RPMI medium to optical densities at 600 nm (OD600) of 1 and 0.01, respectively. Equal volumes of these cell suspensions were mixed, and 100 μl of this mixed cell suspension together with compound was added to the wells of a microtiter plate in triplicate. The concentrations 25 μM (0.0625% DMSO or ethanol) and 100 μM (0.25% DMSO or ethanol) were tested. After 24 h incubation at 37° C. the medium was removed and the biofilm was washed with PBS. Next, the cells were re-suspended in 100 μl of PBS by scraping off, sonication (1 min, 45 kHz, USC300-T; VWR, Radnor, Pa., USA) and vigorously pipetting up-and-down. Finally, dilution series were made, and quantification of E. coli MG1655 and C. albicans SC5314 populations was performed using selective plating on TSA plates containing 25 mg/L amphotericin B and YPD plates containing 100 μg/ml tetracycline, respectively. The percentage of C. albicans SC5314 and E. coli MG1655 cells was determined relative to the DMSO or ethanol control treatment.

Caenorhabditis elegans = details: as previously reported; cited from earlier work
[2] = tested on: eukaryotic tumor cell lines; details: as previously reported; cited from earlier work
[3] = read-out: BIC50, biofilm formation
[4] = C. albicans in mixed biofilm with E. coli MG1655, 25 μM
[5] = C. albicans in mixed biofilm with E. coli MG1655, 100 μM

SMILES | pIC50 (B. cepacia LMG1222T; planktonic growth) | pIC50 (B. cepacia LMG1222T; [3]) | toxicity (in words) (bone cells) | CFUs % survival C.a. [1, 4] | CFUs % survival C.a. [1, 5] | CFUs % survival E. coli ([1]; 25 μM) | CFUs % survival E. coli ([1]; 100 μM) | toxicity (in words) (Caenorhabditis elegans) | toxicity (in words) [2]
CCCCCCCCn1c(-c2ccc(Cl)cc2)cnc1N [Compound 2] | < 3.40 | 3.84 | strong toxicity | 104.9% | 0.0* % | 158.6% | 0.1* % | strong toxicity | strong toxicity
CC(C)CNc1ncc(-c2ccc(Cl)cc2)[nH]1 [Compound 3] | < 3.40 | 4.06 | – | 143.4% | 59.6* % | 138.5% | 63.0* % | – | –
Clc1ccc(-c2cnc(NC3CCCC3)[nH]2)cc1 [Compound 5] | < 3.40 | 3.48 | – | 100.8% | 38.3* % | 100.6% | 105.6* % | – | –
